# Source: US4067982A, “Aryl-substituted piperazinyl-alkylamino-uracils, -uracil ethers and -uracil thioethers as therapeutics” (priority 1976, dated 1978)
# Read-outs that look alike come from different tables or passages of the source.
# What was measured:
# [1] = test system: blood pressure increasing effect of adrenaline; test: Inhibition of the pressor effect of adrenaline, despinalized rat; format: in vivo; settings: iv, 0.001 mg/kg i.v. adrenaline, read-out: 50% inhibition of the press. effect after i.v. administration of adrenaline with
# in vivo = settings: mouse
# mouse [2] = test: Analgesic effect, thermal stimulation of the tail of the mouse; format: in vivo; settings: oral, 25% retardation, read-out: Retardation of the defense reaction upon thermal stimulation of the tail of the mouse by 25%
# Text: The analgesic effect was thereby determined as the delay in the reaction upon thermal stimulation of the tail of the mouse.
# [3] = test system: blood pressure of the narcotized rat; test: Lowering of the blood pressure, narcotized rat; format: in vivo; parameters: unit not given here; settings: 30% lowering
# [4] = test system: histamine spasm of the isolated small intestine of the guinea pig; test: Antihistamine effect, histamine spasm of isolated small intestine
# mouse [5] = test: Prolongation of sleep induced by hexobarbital, mouse; format: in vivo; settings: ip, read-out: % prolongation of sleep induced by hexobarbital by 15 mg/kg i.p.
# mouse [6] = test: Inhibition of the motility in the tread wheel, mouse; format: in vivo; settings: for inhibition in vivo at 25 mg/kg: ip, 3 h, read-out: % Inhibition of the motility in the tread wheel by 25 mg/kg i.p.
# mouse [7] = test: SD50, sedation symptoms, mouse; format: in vivo
# mouse [8] = test: PD50, rotating rod, mouse; format: in vivo; settings: ip, read-out: PD50
# Text: The centrally inhibiting effect of the piperazinyl uracils of the invention in the mouse are apparent from Table IV. […] The selective action of the compounds of the invention on the central blood pressure mechanism can be used advantageously in human therapy in the treatment of hypertonic diseases.
# a = Dose, at which an average of 50% of the mice fall from a rotating rod.
# [9] = test system: blood pressure increasing effect of noradrenaline; test: Inhibition of the pressor effect of noradrenaline, despinalized rat; format: in vivo; settings: iv, 0.001 mg/kg i.v. noradrenaline, read-out: 50% inhibition of the press. effect after i.v. administration of noradrenaline with
# [10] = test system: blood pressure of the narcotized cat; test: Lowering of the blood pressure, narcotized cat; format: in vivo; settings: Felis catus, iv; for ED30: 30% lowering; for ED50: 50% lowering
# [11] = test system: carotid sinus relaxation reflex of the narcotized cat; test: Inhibition of the carotid sinus reflex, narcotized cat; format: in vivo; settings: Felis catus, iv; for ED30: 30% inhibition; for ED50: 50% inhibition
# Hygroscopicity = format: physicochemical; settings: solid product
# [12] = Mus musculus, po, read-out: SD50
# [13] = mouse, 15 mg/kg i.p., 75 mg/kg hexobarbital, vs controls
# [14] = mouse, 5 mg/kg d-amphetamine-sulfate, 180 minutes
# [15] = mouse, oral, dose at which 50% show inhibition of spontaneous motility, sedation, muscle relaxation, loss of gripping, read-out: SD50 (the source's name)
# [16] = mouse, i.p., dose at which an average of 50% of the mice fall from a rotating rod
# [17] = mouse, 25 mg/kg i.p., 5 mg/kg d-amphetamine-sulfate, 180 minutes
Structure (SMILES),ED50 [1] [mg/kg],LD50 (in vivo) [mg/kg],ED25 (mouse [2]) [mg/kg],lowering of the blood pressure by 30% by [3],change in vivo at 15 mg/kg (mouse [5]; [13]) [%],ED50 [9] [mg/kg],ED50 (mouse [7]; [15]) [mg/kg],ED50 (mouse [8]; [16]) [mg/kg],further results
"COc1ccc(OC)c(N2CCN(CCCNc3cc(=O)n(C)c(=O)n3C)CC2)c1 [Example 3, 1,3-Dimethyl-4-(γ-[4-(2,5-dimethoxyphenyl)-piperazinyl-(1)]-propylamino)-uracil]",2.1,430,7,1.4,–,–,–,–,–
"CN1CCC(OC(c2ccccc2)c2ccccc2)CC1 [Piprinhydrinate, reference compound]",–,–,–,–,–,–,–,–,50% inhibition of the histamine spasm of the isolated small intestine of the guinea pig [4]: 1.5e-08 g/mL
"CCCC(C)(COC(N)=O)COC(N)=O [Meprobamate, reference compound]",–,–,–,–,–,–,–,–,change in vivo at 15 mg/kg (mouse [5]; Mus musculus): 18%; inhibition in vivo at 25 mg/kg (mouse [6]; Mus musculus): 28%; ED50 (mouse [7]; [12]): 300 mg/kg; ED50 (mouse [8]; Mus musculus): 95 mg/kg
"Cn1c(NCCCN2CCN(c3ccccc3)CC2)cc(=O)n(C)c1=O [Example 11, 1,3-Dimethyl-4-(γ-[4-phenyl-piperazinyl-(1)]-propylamino)-uracil]",1,120,–,0.48,130,> 2.5,70,11,% Inhibition of the motility in the tread wheel by 12 mg/kg i.p. (mouse [6]; [14]): 22%
"COc1ccccc1N1CCN(CCCNc2c(Br)c(=O)n(C)c(=O)n2C)CC1 [Example 18, 1,3-Dimethyl-4-(γ-[4-(o-methoxyphenyl)-piperazinyl-(1)]-propylamino)-5-bromo-uracil-dihydrobomide]",–,–,–,–,–,–,–,–,ED30 [10]: 0.15 mg/kg; ED50 [10]: > 0.5 mg/kg; ED30 [11]: 0.13 mg/kg; ED50 [11]: 1.1 mg/kg
"Cc1ccccc1N1CCN(CCCNc2c(N=O)c(=O)n(C)c(=O)n2C)CC1 [Example 61, 1,3-Dimethyl-4-([4-(o-tolyl)-piperazinyl-(1)]-propyl-amino)-5-nitroso-uraci]",0.39,600,–,0.5,–,3.7,–,–,–
"Cc1ccc(N2CCN(CCCNc3cc(=O)n(C)c(=O)n3C)CC2)cc1 [Example 1, 1,3-Dimethyl-4-(γ-[4-(p-tolyl)-piperazinyl-(1) ]-propylamino)-uracil]",1.45,200,5,2.9,110,–,40,28,inhibition in vivo at 25 mg/kg (mouse [6]; [17]): 36%
"COc1ccccc1N1CCN(CCCOc2cc(=O)n(C)c(=O)n2C)CC1 [Example 9, 1,3-Dimethyl-4-(γ-[4-(o-methoxyphenyl)-piperazinyl-(1)]-propyloxy)-uracil]",0.15,400,10,> 3.4,140,–,30,12,inhibition in vivo at 25 mg/kg (mouse [6]; [17]): 79%; ED30 [10]: 0.03 mg/kg; ED50 [10]: 0.14 mg/kg; ED30 [11]: 0.17 mg/kg; ED50 [11]: 0.26 mg/kg
"Cc1c(N(C)C)c(=O)n(-c2ccccc2)n1C [Aminophenazone, reference compound]",–,–,140,–,–,–,–,–,–
"COc1ccccc1N1CCN(CCCNc2c(N)c(=O)n(C)c(=O)n2C)CC1 [Example 20, 1,3-Dimethyl-4-(γ-[4-(o-methoxyphenyl)-piperazinyl-(1)]-propylamino)-5-amino-uracil]",0.045,500,–,0.11,62,1.6,80,34,inhibition in vivo at 25 mg/kg (mouse [6]; [17]): 42%; ED30 [10]: 0.05 mg/kg; ED50 [10]: 0.15 mg/kg; ED30 [11]: 0.06 mg/kg; ED50 [11]: 0.15 mg/kg
"CCCCc1c(NCCCN2CCN(c3ccccc3OC)CC2)n(C)c(=O)n(C)c1=O [Example 15, 1,3-Dimethyl-4-(γ-[4-(o-methoxyphenyl)-piperazinyl-(1)]-propylamino)-5-n-butyl-uracil]",0.028,130,–,0.36,–,2.8,–,–,–
"COc1ccccc1N1CCN(CCCNc2c([N+](=O)[O-])c(=O)n(C)c(=O)n2C)CC1 [Example 16, 1,3-dimethyl-4-(γ-[4-(o-methoxyphenyl)-piperazinyl-(1)]-propylamino)-5-nitro-uracil]",0.17,600,10,1.6,–,–,–,–,ED30 [10]: 0.21 mg/kg; ED50 [10]: 1 mg/kg; ED30 [11]: 0.6 mg/kg; ED50 [11]: 2 mg/kg
"Cc1ccccc1N1CCN(CCCNc2cc(=O)n(C)c(=O)n2C)CC1 [Example 12, 1,3-Dimethyl-4-(γ-[4-(o-tolyl)-piperazinyl(1)]-propylamino)-uracil]",0.45,70,6.5,1.0,49,2.5,87,26,% Inhibition of the motility in the tread wheel by 12 mg/kg i.p. (mouse [6]; [14]): 42%; 50% inhibition of the histamine spasm of the isolated small intestine of the guinea pig [4]: 3e-08 g/mL; ED30 [10]: 0.41 mg/kg; ED50 [10]: 2.4 mg/kg
"COc1ccccc1N1CCN(C(C)CNc2cc(=O)n(C)c(=O)n2C)CC1 (stereo not drawn) [Example 17, 1,3-Dimethyl-4-(β-[4-(o-methoxyphenyl)-piperazinyl-(1)]-propylamino)-uracil]",0.16,220,–,3.0,–,2.3,–,–,–
"CCOc1ccccc1N1CCN(CCCNc2cc(=O)n(C)c(=O)n2C)CC1 [Example 5, 1,3-Dimethyl-4-(γ[4-(o-ethoxyphenyl)-piperazinyl-(1)]-propylamino)-uracil]",0.24,250,9,0.36,126,–,98,26,inhibition in vivo at 25 mg/kg (mouse [6]; [17]): 46%
"COc1ccccc1N1CCN(CCCNc2c(C)c(=O)n(C)c(=O)n2C)CC1 [Example 14, 1,3,5-Trimethyl-4-(γ-[4-(o-methoxyphenyl)-piperazinyl-(1)]-propylamino)-uracil]",0.045,140,–,0.13,152,1.2,90,12,inhibition in vivo at 25 mg/kg (mouse [6]; [17]): 21%
"COc1cccc(N2CCN(CCCNc3cc(=O)n(C)c(=O)n3C)CC2)c1 [Example 7, 1,3-Dimethyl-4-(γ-[4-(m-methoxyphenyl)-piperazinyl-(1)]-propylamino)-uracil]",–,–,–,–,–,–,–,–,50% inhibition of the histamine spasm of the isolated small intestine of the guinea pig [4]: 2e-08 g/mL
"COc1ccccc1N1CCN(CCCNc2c(N=O)c(=O)n(C)c(=O)n2C)CC1 [Example 19, 1,3-Dimethyl-4-(γ-[4-(o-methoxyphenyl)-piperazinyl-(1)]-propylamino)-5-nitroso-uracil]",–,–,–,–,–,–,–,–,hygroscopicity (Hygroscopicity): hygroscopic
"Cn1c(NCCCN2CCN(c3ccc(Cl)cc3)CC2)cc(=O)n(C)c1=O [Example 13, 1,3-Dimethyl-4-(γ-[4-(p-chlorophenyl)-piperazinyl-(1)]-propylamino)-uracil]",> 2.5,70,–,> 3.4,–,–,–,–,50% inhibition of the histamine spasm of the isolated small intestine of the guinea pig [4]: 1e-08 g/mL
"CNC1=Nc2ccc(Cl)cc2C(c2ccccc2)=[N+]([O-])C1 [Chlordiazepoxyde, reference compound]",–,–,–,–,–,–,–,–,change in vivo at 15 mg/kg (mouse [5]; Mus musculus): 324%; inhibition in vivo at 25 mg/kg (mouse [6]; Mus musculus): 30%; ED50 (mouse [7]; [12]): 8 mg/kg; ED50 (mouse [8]; Mus musculus): 38 mg/kg
